Laboratory results taken from the supplement of paper PMC13207355.
Counter-ions that a name gives are not always drawn.

Key:
Conditions in all cases: exposure time: 72 h
E34 [1] = patient-derived glioblastoma stem cells of proneural subtype; test: phenotypic distance (Euclidean, principal components) from DMSO controls (arbitrary units); higher = stronger morphological change
E28 [2] = patient-derived glioblastoma stem cells of classical subtype; test: as above
E31 [3] = patient-derived glioblastoma stem cells of proneural subtype; test: as above
E21 [4] = patient-derived glioblastoma stem cells of mesenchymal subtype; test: as above
E57 [5] = patient-derived glioblastoma stem cells of mesenchymal subtype; test: as above
E13 [6] = patient-derived glioblastoma stem cells of classical subtype; test: as above
FT3469 [7] = normal neural stem cell line; test: as above
E34 [8] = test: surviving fraction (nuclei count normalised to DMSO); higher = more cells surviving (less toxic)
E28 [9] = test: as above
E31 [10] = test: as above
E21 [11] = test: as above
E57 [12] = test: as above
E13 [13] = test: as above
FT3469 [14] = test: as above
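Throughout, for phenotypic distance (Euclidean, principal components) from DMSO controls: cell Painting imaging in 384-well plates, CellProfiler features reduced to at least 20 principal components, Euclidean distance versus same-plate DMSO vehicle wells (0.1% v/v), median over six images per well.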
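Throughout, for surviving fraction (nuclei count normalised to DMSO): nuclei counted by high-content imaging of Hoechst-stained cells in laminin-coated 384-well plates, relative to 0.1% DMSO vehicle wells, with staurosporine as cell-death control.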

SMILES: COc1cc2nc(N3CCN(C(=O)c4ccco4)CC3)nc(N)c2cc1OC [Prazosin hydrochloride]
- phenotypic distance (E34 [1]; 4.11523 nM): 0.522
- phenotypic distance (E34 [1]; 12.34567901 nM): 0.593
- phenotypic distance (E34 [1]; 37.037 nM): 0.611
- phenotypic distance (E34 [1]; 111.1111111 nM): 0.647
- phenotypic distance (E34 [1]; 333.333 nM): 0.638
- phenotypic distance (E34 [1]; 1000 nM): 0.628
- phenotypic distance (E34 [1]; 3000 nM): 0.776
- phenotypic distance (E28 [2]; 4.11523 nM): 0.643
- phenotypic distance (E28 [2]; 12.34567901 nM): 0.664
- phenotypic distance (E28 [2]; 37.037 nM): 1.1
- phenotypic distance (E28 [2]; 111.1111111 nM): 0.589
- phenotypic distance (E28 [2]; 333.333 nM): 0.766
- phenotypic distance (E28 [2]; 1000 nM): 1.03
- phenotypic distance (E28 [2]; 3000 nM): 0.426
- phenotypic distance (E31 [3]; 4.11523 nM): 0.642
- phenotypic distance (E31 [3]; 12.34567901 nM): 0.488
- phenotypic distance (E31 [3]; 37.037 nM): 0.739
- phenotypic distance (E31 [3]; 111.1111111 nM): 0.653
- phenotypic distance (E31 [3]; 333.333 nM): 0.984
- phenotypic distance (E31 [3]; 1000 nM): 0.431
- phenotypic distance (E31 [3]; 3000 nM): 0.892
- phenotypic distance (E21 [4]; 4.11523 nM): 0.712
- phenotypic distance (E21 [4]; 12.34567901 nM): 0.547
- phenotypic distance (E21 [4]; 37.037 nM): 0.834
- phenotypic distance (E21 [4]; 111.1111111 nM): 0.524
- phenotypic distance (E21 [4]; 333.333 nM): 0.736
- phenotypic distance (E21 [4]; 1000 nM): 0.384
- phenotypic distance (E21 [4]; 3000 nM): 0.699
- phenotypic distance (E57 [5]; 4.11523 nM): 0.592
- phenotypic distance (E57 [5]; 12.34567901 nM): 0.576
- phenotypic distance (E57 [5]; 37.037 nM): 0.642
- phenotypic distance (E57 [5]; 111.1111111 nM): 0.745
- phenotypic distance (E57 [5]; 333.333 nM): 0.475
- phenotypic distance (E57 [5]; 1000 nM): 0.697
- phenotypic distance (E57 [5]; 3000 nM): 0.95
- phenotypic distance (E13 [6]; 4.11523 nM): 0.601
- phenotypic distance (E13 [6]; 12.34567901 nM): 3.49
- phenotypic distance (E13 [6]; 37.037 nM): 2.1
- phenotypic distance (E13 [6]; 111.1111111 nM): 0.55
- phenotypic distance (E13 [6]; 333.333 nM): 0.666
- phenotypic distance (E13 [6]; 1000 nM): 0.512
- phenotypic distance (E13 [6]; 3000 nM): 2.04
- phenotypic distance (FT3469 [7]; 4.11523 nM): 0.634
- phenotypic distance (FT3469 [7]; 12.34567901 nM): 0.798
- phenotypic distance (FT3469 [7]; 37.037 nM): 0.909
- phenotypic distance (FT3469 [7]; 111.1111111 nM): 0.541
- phenotypic distance (FT3469 [7]; 333.333 nM): 0.436
- phenotypic distance (FT3469 [7]; 1000 nM): 0.748
- phenotypic distance (FT3469 [7]; 3000 nM): 0.762
- surviving fraction (E34 [8]; 4.11523 nM): 1.04
- surviving fraction (E34 [8]; 12.34567901 nM): 0.994
- surviving fraction (E34 [8]; 37.037 nM): 1.14
- surviving fraction (E34 [8]; 111.1111111 nM): 0.986
- surviving fraction (E34 [8]; 333.333 nM): 1.11
- surviving fraction (E34 [8]; 1000 nM): 0.837
- surviving fraction (E34 [8]; 3000 nM): 1.04
- surviving fraction (E28 [9]; 4.11523 nM): 1.07
- surviving fraction (E28 [9]; 12.34567901 nM): 0.881
- surviving fraction (E28 [9]; 37.037 nM): 1.17
- surviving fraction (E28 [9]; 111.1111111 nM): 0.956
- surviving fraction (E28 [9]; 333.333 nM): 1.2
- surviving fraction (E28 [9]; 1000 nM): 0.907
- surviving fraction (E28 [9]; 3000 nM): 0.976
- surviving fraction (E31 [10]; 4.11523 nM): 0.988
- surviving fraction (E31 [10]; 12.34567901 nM): 1.19
- surviving fraction (E31 [10]; 37.037 nM): 1.13
- surviving fraction (E31 [10]; 111.1111111 nM): 1.03
- surviving fraction (E31 [10]; 333.333 nM): 1.04
- surviving fraction (E31 [10]; 1000 nM): 1.07
- surviving fraction (E31 [10]; 3000 nM): 1
- surviving fraction (E21 [11]; 4.11523 nM): 1.03
- surviving fraction (E21 [11]; 12.34567901 nM): 1.03
- surviving fraction (E21 [11]; 37.037 nM): 1
- surviving fraction (E21 [11]; 111.1111111 nM): 1.04
- surviving fraction (E21 [11]; 333.333 nM): 1.11
- surviving fraction (E21 [11]; 1000 nM): 0.938
- surviving fraction (E21 [11]; 3000 nM): 0.912
- surviving fraction (E57 [12]; 4.11523 nM): 1.07
- surviving fraction (E57 [12]; 12.34567901 nM): 1.02
- surviving fraction (E57 [12]; 37.037 nM): 1.09
- surviving fraction (E57 [12]; 111.1111111 nM): 0.961
- surviving fraction (E57 [12]; 333.333 nM): 1
- surviving fraction (E57 [12]; 1000 nM): 0.915
- surviving fraction (E57 [12]; 3000 nM): 0.97
- surviving fraction (E13 [13]; 4.11523 nM): 1.11
- surviving fraction (E13 [13]; 12.34567901 nM): 0.996
- surviving fraction (E13 [13]; 37.037 nM): 1.07
- surviving fraction (E13 [13]; 111.1111111 nM): 0.955
- surviving fraction (E13 [13]; 333.333 nM): 1.04
- surviving fraction (E13 [13]; 1000 nM): 1.03
- surviving fraction (E13 [13]; 3000 nM): 0.815
- surviving fraction (FT3469 [14]; 4.11523 nM): 1
- surviving fraction (FT3469 [14]; 12.34567901 nM): 1.14
- surviving fraction (FT3469 [14]; 37.037 nM): 1.03
- surviving fraction (FT3469 [14]; 111.1111111 nM): 1.05
- surviving fraction (FT3469 [14]; 333.333 nM): 1.14
- surviving fraction (FT3469 [14]; 1000 nM): 1.12
- surviving fraction (FT3469 [14]; 3000 nM): 1.06
